Data taken from patent publication US12365696B2, “Small-molecule focal adhesion kinase (FAK) inhibitors” (DANA-FARBER CANCER INSTITUTE, INC., priority 2019, dated 2025).

Columns and labels:
CHEK1 = CHEK1 (Homo sapiens (Human), UniProt O14757); assay: KINOMEscan; type: binding; details: CHEK1, 10000 nM; read-out: Percent Control
[1] = target: ABL1(F317L)-nonphosphorylated (Homo sapiens (Human), UniProt P00519, F317L); assay: KINOMEscan; type: binding; details: 10000 nM, read-out: Percent Control
MLK3 = MLK3 (Homo sapiens (Human), UniProt Q16584); assay: KINOMEscan; type: binding; details: MLK3, 10000 nM; read-out: Percent Control
p38-gamma = p38-gamma (Homo sapiens (Human), UniProt P53778); assay: KINOMEscan; type: binding; details: 10000 nM, read-out: Percent Control
CLK2 = CLK2 (Homo sapiens (Human), UniProt P49760); assay: KINOMEscan; type: binding; details: CLK2, 10000 nM; read-out: Percent Control
VEGFR2 = VEGFR2 (Homo sapiens (Human), UniProt P35968); assay: KINOMEscan; type: binding; details: VEGFR2, 10000 nM; read-out: Percent Control
TNIK = TNIK (Homo sapiens (Human), UniProt Q9UKE5); assay: KINOMEscan; type: binding; details: 10000 nM, read-out: Percent Control
FLT3(N841I) = FLT3(N841I) (Homo sapiens (Human), UniProt P36888, N841I); assay: KINOMEscan; type: binding; details: 10000 nM, read-out: Percent Control
CDKL5 = CDKL5 (Homo sapiens (Human), UniProt O76039); assay: KINOMEscan; type: binding; details: CDKL5, 10000 nM; read-out: Percent Control
LATS1 = LATS1 (Homo sapiens (Human), UniProt O95835); assay: KINOMEscan; type: binding; details: LATS1, 10000 nM; read-out: Percent Control
ACVR2A = ACVR2A (Homo sapiens (Human), UniProt P27037); assay: KINOMEscan; type: binding; details: 10000 nM, read-out: Percent Control
CDK4-cyclinD1 = CDK4-cyclinD1 (Homo sapiens (Human), UniProt P11802); assay: KINOMEscan; type: binding; details: CDK4-cyclinD1, 10000 nM; read-out: Percent Control
HUNK = HUNK (Homo sapiens (Human), UniProt P57058); assay: KINOMEscan; type: binding; details: 10000 nM, read-out: Percent Control
DDR2 = DDR2 (Homo sapiens (Human), UniProt Q16832); assay: KINOMEscan; type: binding; details: DDR2, 10000 nM; read-out: Percent Control
SIK2 = SIK2 (Homo sapiens (Human), UniProt Q9H0K1); assay: KINOMEscan; type: binding; details: SIK2, 10000 nM; read-out: Percent Control
PIK3CA(I800L) = PIK3CA(I800L) (Homo sapiens (Human), UniProt P42336, I800L); assay: KINOMEscan; type: binding; details: 10000 nM, read-out: Percent Control
PYK2 = PYK2 (Homo sapiens (Human), UniProt Q14289); assay: KINOMEscan; type: binding; details: PYK2, 10000 nM; read-out: Percent Control
TAOK2 = TAOK2 (Homo sapiens (Human), UniProt Q9UL54); assay: KINOMEscan; type: binding; details: TAOK2, 10000 nM; read-out: Percent Control
SRC = SRC (Homo sapiens (Human), UniProt P12931); assay: KINOMEscan; type: binding; details: 10000 nM, read-out: Percent Control
FAK = FAK (Homo sapiens (Human), UniProt Q05397); assay: KINOMEscan; type: binding; details: 10000 nM, read-out: Percent Control
MDA-MB-231 cells = assay: 2D-adherent monolayer cell viability (Cell Titer-Glo), 120 hrs; type: cell-based; details: Homo sapiens
Method: For 2D-adherent monolayer experiments, MDA-MB-231 cells were plated in 384-well format and allowed to adhere overnight. Cells were treated with indicated molecules from compound stock plates using a JANUS® Workstation pin tool for 120 hrs. To measure cell viability, Cell Titer-Glo® was added to wells for 15 minutes at room temperature and luminescence was measured on an EnVision™ 2104 Multilabel Plate Reader.
Inventive compound treatment (0.00063-20 μM) led to antiproliferative effects in MDA-MB-231 cells cultured as 2D-adherent monolayers or as ultra-low adherent 3D-spheroid suspensions (Table 5).

SBK1 = SBK1 (Homo sapiens (Human), UniProt Q52WX2); assay: KINOMEscan; type: binding; details: SBK1, 10000 nM; read-out: Percent Control
BUB1 = BUB1 (Homo sapiens (Human), UniProt O43683); assay: KINOMEscan; type: binding; details: BUB1, 10000 nM; read-out: Percent Control
NEK5 = NEK5 (Homo sapiens (Human), UniProt Q6P3R8); assay: KINOMEscan; type: binding; details: NEK5, 10000 nM; read-out: Percent Control
PHKG1 = PHKG1 (Homo sapiens (Human), UniProt Q16816); assay: KINOMEscan; type: binding; details: PHKG1, 10000 nM; read-out: Percent Control
MYLK2 = MYLK2 (Homo sapiens (Human), UniProt Q9H1R3); assay: KINOMEscan; type: binding; details: MYLK2, 10000 nM; read-out: Percent Control
[2] = target: ABL1(Y253F)-phosphorylated (Homo sapiens (Human), UniProt P00519, Y253F); assay: KINOMEscan; type: binding; details: 10000 nM, read-out: Percent Control
PIK3CA(E545A) = PIK3CA(E545A) (Homo sapiens (Human), UniProt P42336, E545A); assay: KINOMEscan; type: binding; details: 10000 nM, read-out: Percent Control
BMX = BMX (Homo sapiens (Human), UniProt P51813); assay: KINOMEscan; type: binding; details: 10000 nM, read-out: Percent Control
BRK = BRK (Homo sapiens (Human), UniProt Q13882); assay: KINOMEscan; type: binding; details: 10000 nM, read-out: Percent Control
NIM1 = NIM1 (Homo sapiens (Human), UniProt Q8IY84); assay: KINOMEscan; type: binding; details: NIM1, 10000 nM; read-out: Percent Control
SIK = SIK (Homo sapiens (Human), UniProt P57059); assay: KINOMEscan; type: binding; details: 10000 nM, read-out: Percent Control

Sequence of LATS1 (O95835 whole entry): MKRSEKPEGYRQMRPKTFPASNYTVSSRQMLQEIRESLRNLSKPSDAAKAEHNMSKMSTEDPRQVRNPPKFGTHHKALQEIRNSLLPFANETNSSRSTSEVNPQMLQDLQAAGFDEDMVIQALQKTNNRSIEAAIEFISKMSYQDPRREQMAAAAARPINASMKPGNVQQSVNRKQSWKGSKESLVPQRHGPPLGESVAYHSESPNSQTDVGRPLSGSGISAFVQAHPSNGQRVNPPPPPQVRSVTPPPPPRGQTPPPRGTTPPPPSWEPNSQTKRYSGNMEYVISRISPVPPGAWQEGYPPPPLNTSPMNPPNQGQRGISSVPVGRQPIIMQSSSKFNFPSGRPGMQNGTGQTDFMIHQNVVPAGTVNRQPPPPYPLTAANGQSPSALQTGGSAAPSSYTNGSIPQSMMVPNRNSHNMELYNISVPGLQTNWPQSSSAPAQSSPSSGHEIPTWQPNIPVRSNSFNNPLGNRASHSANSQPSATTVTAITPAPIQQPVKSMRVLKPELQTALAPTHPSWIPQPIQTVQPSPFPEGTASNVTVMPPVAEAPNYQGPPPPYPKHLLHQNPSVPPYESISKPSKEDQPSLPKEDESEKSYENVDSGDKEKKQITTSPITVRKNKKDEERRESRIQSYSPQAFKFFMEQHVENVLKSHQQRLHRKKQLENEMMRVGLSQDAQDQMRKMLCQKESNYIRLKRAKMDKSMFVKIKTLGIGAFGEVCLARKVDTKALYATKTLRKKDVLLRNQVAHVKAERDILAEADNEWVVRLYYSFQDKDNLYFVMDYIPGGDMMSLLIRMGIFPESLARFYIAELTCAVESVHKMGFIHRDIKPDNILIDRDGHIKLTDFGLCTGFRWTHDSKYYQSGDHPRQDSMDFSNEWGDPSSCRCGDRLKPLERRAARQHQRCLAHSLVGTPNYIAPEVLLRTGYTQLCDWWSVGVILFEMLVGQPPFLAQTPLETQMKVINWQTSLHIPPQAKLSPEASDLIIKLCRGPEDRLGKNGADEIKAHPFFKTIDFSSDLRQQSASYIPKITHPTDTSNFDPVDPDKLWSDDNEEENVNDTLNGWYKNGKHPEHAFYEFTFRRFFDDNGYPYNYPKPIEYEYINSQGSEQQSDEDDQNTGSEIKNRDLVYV
Sequence of PHKG1 (Q16816 whole entry): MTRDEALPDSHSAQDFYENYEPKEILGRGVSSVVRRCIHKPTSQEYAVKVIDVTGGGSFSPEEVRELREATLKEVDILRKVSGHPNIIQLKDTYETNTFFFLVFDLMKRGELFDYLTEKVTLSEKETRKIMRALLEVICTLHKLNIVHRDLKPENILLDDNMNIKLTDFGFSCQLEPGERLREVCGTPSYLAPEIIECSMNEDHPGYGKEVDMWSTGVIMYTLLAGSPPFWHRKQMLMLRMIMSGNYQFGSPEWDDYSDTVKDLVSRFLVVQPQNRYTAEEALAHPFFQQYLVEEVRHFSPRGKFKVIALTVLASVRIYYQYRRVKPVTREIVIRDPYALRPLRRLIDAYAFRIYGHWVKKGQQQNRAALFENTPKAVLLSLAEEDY
Sequence of PYK2 (Q14289 whole entry): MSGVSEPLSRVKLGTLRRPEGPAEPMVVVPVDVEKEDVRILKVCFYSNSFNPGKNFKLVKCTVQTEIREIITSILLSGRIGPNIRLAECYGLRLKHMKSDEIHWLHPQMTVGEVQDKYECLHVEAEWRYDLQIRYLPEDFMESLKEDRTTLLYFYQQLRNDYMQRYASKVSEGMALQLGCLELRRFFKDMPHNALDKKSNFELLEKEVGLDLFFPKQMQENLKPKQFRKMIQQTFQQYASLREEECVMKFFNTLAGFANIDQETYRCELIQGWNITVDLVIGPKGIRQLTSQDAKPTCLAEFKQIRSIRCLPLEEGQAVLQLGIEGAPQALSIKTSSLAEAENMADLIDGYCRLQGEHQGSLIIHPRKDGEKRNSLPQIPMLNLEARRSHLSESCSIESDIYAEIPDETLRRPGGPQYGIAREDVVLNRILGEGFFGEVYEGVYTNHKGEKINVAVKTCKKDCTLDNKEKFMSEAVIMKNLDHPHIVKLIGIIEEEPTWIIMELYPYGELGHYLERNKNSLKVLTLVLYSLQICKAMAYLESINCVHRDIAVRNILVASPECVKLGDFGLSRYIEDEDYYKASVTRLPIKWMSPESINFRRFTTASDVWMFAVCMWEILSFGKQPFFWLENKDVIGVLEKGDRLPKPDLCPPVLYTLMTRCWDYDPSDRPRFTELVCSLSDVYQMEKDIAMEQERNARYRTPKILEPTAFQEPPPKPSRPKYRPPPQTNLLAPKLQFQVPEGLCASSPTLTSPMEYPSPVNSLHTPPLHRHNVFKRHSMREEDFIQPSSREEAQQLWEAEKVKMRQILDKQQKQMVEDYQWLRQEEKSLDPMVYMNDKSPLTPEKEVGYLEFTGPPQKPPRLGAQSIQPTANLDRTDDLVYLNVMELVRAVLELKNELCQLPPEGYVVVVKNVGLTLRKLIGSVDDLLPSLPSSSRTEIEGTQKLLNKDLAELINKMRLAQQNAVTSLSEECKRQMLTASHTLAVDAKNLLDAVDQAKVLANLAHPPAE
Sequence of TNIK (Q9UKE5 whole entry): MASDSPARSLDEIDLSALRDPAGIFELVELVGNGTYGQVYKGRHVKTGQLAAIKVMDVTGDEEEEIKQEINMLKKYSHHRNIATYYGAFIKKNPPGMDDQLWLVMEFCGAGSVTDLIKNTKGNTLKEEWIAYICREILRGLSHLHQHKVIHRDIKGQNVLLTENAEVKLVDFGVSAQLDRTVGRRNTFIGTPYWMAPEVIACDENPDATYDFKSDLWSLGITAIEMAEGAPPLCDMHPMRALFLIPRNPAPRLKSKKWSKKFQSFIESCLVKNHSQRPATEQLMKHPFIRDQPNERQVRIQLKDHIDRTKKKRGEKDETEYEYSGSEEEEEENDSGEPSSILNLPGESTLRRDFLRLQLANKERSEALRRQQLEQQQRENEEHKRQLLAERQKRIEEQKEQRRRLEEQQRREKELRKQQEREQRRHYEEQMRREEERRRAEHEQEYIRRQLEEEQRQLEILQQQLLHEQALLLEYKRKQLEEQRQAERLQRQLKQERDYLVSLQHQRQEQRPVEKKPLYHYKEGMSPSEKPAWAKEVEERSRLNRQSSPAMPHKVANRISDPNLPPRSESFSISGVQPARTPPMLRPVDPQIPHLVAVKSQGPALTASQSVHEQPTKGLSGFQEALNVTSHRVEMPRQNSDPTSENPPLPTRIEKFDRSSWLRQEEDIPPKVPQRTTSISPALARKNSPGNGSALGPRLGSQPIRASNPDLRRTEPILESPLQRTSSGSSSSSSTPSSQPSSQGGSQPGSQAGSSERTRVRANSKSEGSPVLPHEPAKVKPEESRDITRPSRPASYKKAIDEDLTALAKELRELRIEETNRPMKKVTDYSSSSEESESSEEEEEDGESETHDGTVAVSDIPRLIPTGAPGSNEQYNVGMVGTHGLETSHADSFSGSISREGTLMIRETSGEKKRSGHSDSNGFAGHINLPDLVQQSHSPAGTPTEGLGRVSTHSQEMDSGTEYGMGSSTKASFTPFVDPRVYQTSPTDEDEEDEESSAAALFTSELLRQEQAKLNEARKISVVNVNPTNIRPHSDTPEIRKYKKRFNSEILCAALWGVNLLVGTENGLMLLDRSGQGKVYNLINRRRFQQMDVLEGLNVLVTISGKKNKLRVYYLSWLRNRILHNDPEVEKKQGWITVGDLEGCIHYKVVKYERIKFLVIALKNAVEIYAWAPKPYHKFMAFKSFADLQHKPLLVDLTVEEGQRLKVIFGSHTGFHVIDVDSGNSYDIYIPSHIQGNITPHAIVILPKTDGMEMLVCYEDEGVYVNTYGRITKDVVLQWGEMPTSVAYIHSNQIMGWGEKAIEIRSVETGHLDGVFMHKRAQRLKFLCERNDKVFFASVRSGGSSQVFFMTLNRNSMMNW
Sequence of DDR2 (Q16832 22-855): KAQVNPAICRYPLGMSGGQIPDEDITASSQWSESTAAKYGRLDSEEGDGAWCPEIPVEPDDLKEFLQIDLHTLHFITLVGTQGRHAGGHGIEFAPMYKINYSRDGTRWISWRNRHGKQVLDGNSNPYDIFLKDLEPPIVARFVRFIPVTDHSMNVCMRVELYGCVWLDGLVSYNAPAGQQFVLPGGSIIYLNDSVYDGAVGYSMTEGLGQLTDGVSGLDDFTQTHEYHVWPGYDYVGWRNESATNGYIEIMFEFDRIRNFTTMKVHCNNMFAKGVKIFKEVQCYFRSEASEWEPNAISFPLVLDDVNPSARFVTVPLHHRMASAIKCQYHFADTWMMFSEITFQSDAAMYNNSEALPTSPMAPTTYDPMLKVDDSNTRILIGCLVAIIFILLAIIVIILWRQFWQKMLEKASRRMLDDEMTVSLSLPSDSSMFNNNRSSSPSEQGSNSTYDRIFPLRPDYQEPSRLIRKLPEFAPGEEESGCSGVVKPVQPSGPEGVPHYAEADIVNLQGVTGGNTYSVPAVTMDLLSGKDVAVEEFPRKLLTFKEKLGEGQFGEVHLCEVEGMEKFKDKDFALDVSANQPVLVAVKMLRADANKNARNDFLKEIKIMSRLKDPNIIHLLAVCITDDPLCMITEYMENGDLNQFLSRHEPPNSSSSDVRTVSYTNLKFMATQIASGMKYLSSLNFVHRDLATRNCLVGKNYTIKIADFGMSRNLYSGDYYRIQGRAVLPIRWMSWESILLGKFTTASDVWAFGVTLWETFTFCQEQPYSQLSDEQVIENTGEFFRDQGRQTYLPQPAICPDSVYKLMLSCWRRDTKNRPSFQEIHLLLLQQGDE
Sequence of p38-gamma (P53778 whole entry): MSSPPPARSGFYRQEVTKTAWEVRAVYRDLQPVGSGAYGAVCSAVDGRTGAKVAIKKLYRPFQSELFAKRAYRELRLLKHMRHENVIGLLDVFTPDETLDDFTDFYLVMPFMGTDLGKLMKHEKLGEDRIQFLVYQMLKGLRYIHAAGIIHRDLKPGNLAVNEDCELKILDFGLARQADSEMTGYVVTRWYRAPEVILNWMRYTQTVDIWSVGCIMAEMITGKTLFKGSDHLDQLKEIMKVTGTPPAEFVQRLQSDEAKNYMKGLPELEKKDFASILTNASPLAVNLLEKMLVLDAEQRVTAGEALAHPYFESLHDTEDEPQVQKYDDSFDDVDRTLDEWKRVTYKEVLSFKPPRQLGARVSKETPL

SMILES | remaining binding at 10 µM (CHEK1) [%] | remaining binding at 10 µM [1] [%] | remaining binding at 10 µM (MLK3) [%] | remaining binding at 10 µM (p38-gamma) [%] | remaining binding at 10 µM (CLK2) [%] | remaining binding at 10 µM (VEGFR2) [%] | remaining binding at 10 µM (TNIK) [%] | remaining binding at 10 µM (FLT3(N841I)) [%] | remaining binding at 10 µM (CDKL5) [%] | remaining binding at 10 µM (LATS1) [%] | remaining binding at 10 µM (ACVR2A) [%] | remaining binding at 10 µM (CDK4-cyclinD1) [%] | remaining binding at 10 µM (HUNK) [%] | remaining binding at 10 µM (DDR2) [%] | remaining binding at 10 µM (SIK2) [%] | remaining binding at 10 µM (PIK3CA(I800L)) [%] | remaining binding at 10 µM (PYK2) [%] | remaining binding at 10 µM (TAOK2) [%] | remaining binding at 10 µM (SRC) [%] | remaining binding at 10 µM (FAK) [%] | further results
COc1cc(N2CCC(N3CCN(C)CC3)CC2)ccc1Nc1ncc2c(n1)N(C)c1sc(C)nc1C(=O)N2 [Compound 3, 6-((2-methoxy-4-(4-(4-methylpiperazin-1-yl)piperidin-1-yl)phenyl)amino)-2,4-dimethyl-4,9-dihydro-10H-pyrimido[5,4-b]thiazolo[5,4-e][1,4]diazepin-10-one] | 79 | 3.9 | 73 | 67 | 72 | 100 | 94 | 98 | 97 | 77 | 76 | 100 | 95 | 100 | 86 | 100 | 41 | 95 | 63 | 0.55 | IC50 (MDA-MB-231 cells): > 10 µM; remaining binding at 10 µM (SBK1): 100%; remaining binding at 10 µM (BUB1): 100%; remaining binding at 10 µM (NEK5): 97%; remaining binding at 10 µM (PHKG1): 78%; remaining binding at 10 µM (MYLK2): 84%; remaining binding at 10 µM [2]: 47%; remaining binding at 10 µM (PIK3CA(E545A)): 84%; remaining binding at 10 µM (BMX): 76%; remaining binding at 10 µM (BRK): 66%; remaining binding at 10 µM (NIM1): 100%; remaining binding at 10 µM (SIK): 69%
COc1cc(N2CCC(N3CCN(C)CC3)CC2)ccc1Nc1ncc2c(n1)N(C)c1sc(C)nc1C(=O)N2C [Compound 5, 6-((2-methoxy-4-(4-(4-methylpiperazin-1-yl)piperidin-1-yl)phenyl)amino)-2,4,9-trimethyl-4,9-dihydro-10H-pyrimido[5,4-b]thiazolo[5,4-e][1,4]diazepin-10-one] | 59 | 54 | 100 | 95 | 100 | 95 | 99 | 83 | 100 | 50 | 97 | 90 | 97 | 100 | 99 | 70 | 85 | 93 | 100 | 0.1 | IC50 (MDA-MB-231 cells): 7.6 µM; remaining binding at 10 µM (SBK1): 98%; remaining binding at 10 µM (BUB1): 100%; remaining binding at 10 µM (NEK5): 100%; remaining binding at 10 µM (PHKG1): 84%; remaining binding at 10 µM (MYLK2): 97%; remaining binding at 10 µM [2]: 100%; remaining binding at 10 µM (PIK3CA(E545A)): 100%; remaining binding at 10 µM (BMX): 90%; remaining binding at 10 µM (BRK): 100%; remaining binding at 10 µM (NIM1): 100%; remaining binding at 10 µM (SIK): 100%
